Experimental data reported in ChEMBL document CHEMBL1909294, “Translating clinical findings into knowledge in drug safety evaluation--drug induced liver injury prediction system (DILIps)” (PLoS Comput Biol, 2011).

Key:
[1] = system: Hepatotoxicity;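 as to HepSE cirrhosis: cirrhosis hepatic side effect score taken from the DILIps (drug-induced liver injury prediction) training set; call rule not given here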;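 as to HepSE hepatitis: Hepatitis-related hepatic side effect score taken from the training data of DILIps, a prediction system for drug-induced liver injury; call rule not given here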;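 as to HepSE hepatomegaly: hepatic side effect score for hepatomegaly, taken from the training set of the DILIps drug-induced liver injury prediction system; call rule not given here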;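 as to HepSE jaundice: Jaundice-related hepatic side-effect score drawn from the training data of the DILIps (drug-induced liver injury prediction system); call rule not given here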; as to HepSE liver disease: call rule not given here;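 as to HepSE liver fatty: hepatic side effect score for fatty liver, taken from the DILIps training set for predicting drug-induced liver injury; call rule not given here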;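 as to HepSE liver function tests abnormal: hepatic side effect score taken from the DILIps (drug-induced liver injury prediction system) training data, here covering abnormal liver function test findings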
[2] = system: Hepatotoxicity; remark: listed apart in the source;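 as to HepSE cirrhosis: cirrhosis hepatic side effect score taken from the DILIps (drug-induced liver injury prediction) training set; call rule not given here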;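 as to HepSE hepatitis: Hepatitis-related hepatic side effect score taken from the training data of DILIps, a prediction system for drug-induced liver injury; call rule not given here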;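 as to HepSE hepatomegaly: hepatic side effect score for hepatomegaly, taken from the training set of the DILIps drug-induced liver injury prediction system; call rule not given here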;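 as to HepSE jaundice: Jaundice-related hepatic side-effect score drawn from the training data of the DILIps (drug-induced liver injury prediction system); call rule not given here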; as to HepSE liver disease: call rule not given here;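 as to HepSE liver fatty: hepatic side effect score for fatty liver, taken from the DILIps training set for predicting drug-induced liver injury; call rule not given here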
[3] = system: Hepatotoxicity; remark: listed apart in the source;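 as to HepSE cirrhosis: cirrhosis hepatic side effect score taken from the DILIps (drug-induced liver injury prediction) training set; call rule not given here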;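 as to HepSE hepatitis: Hepatitis-related hepatic side effect score taken from the training data of DILIps, a prediction system for drug-induced liver injury; call rule not given here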;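 as to HepSE hepatomegaly: hepatic side effect score for hepatomegaly, taken from the training set of the DILIps drug-induced liver injury prediction system; call rule not given here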;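 as to HepSE jaundice: Jaundice-related hepatic side-effect score drawn from the training data of the DILIps (drug-induced liver injury prediction system); call rule not given here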; as to HepSE liver disease: call rule not given here;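 as to HepSE liver fatty: hepatic side effect score for fatty liver, taken from the DILIps training set for predicting drug-induced liver injury; call rule not given here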
[4] = system: Hepatotoxicity; remark: listed apart in the source;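 as to HepSE cirrhosis: cirrhosis hepatic side effect score taken from the DILIps (drug-induced liver injury prediction) training set; call rule not given here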;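 as to HepSE hepatitis: Hepatitis-related hepatic side effect score taken from the training data of DILIps, a prediction system for drug-induced liver injury; call rule not given here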;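 as to HepSE hepatomegaly: hepatic side effect score for hepatomegaly, taken from the training set of the DILIps drug-induced liver injury prediction system; call rule not given here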;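 as to HepSE jaundice: Jaundice-related hepatic side-effect score drawn from the training data of the DILIps (drug-induced liver injury prediction system); call rule not given here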; as to HepSE liver disease: call rule not given here;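 as to HepSE liver fatty: hepatic side effect score for fatty liver, taken from the DILIps training set for predicting drug-induced liver injury; call rule not given here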
[5] = system: Hepatotoxicity; remark: listed apart in the source; as to HepSE liver disease: call rule not given here
[6] = system: Hepatotoxicity; remark: listed apart in the source; as to HepSE liver disease: call rule not given here
[7] = system: Hepatotoxicity; remark: listed apart in the source
[8] = system: Hepatotoxicity; remark: listed apart in the source
[9] = system: Hepatotoxicity; remark: listed apart in the source
[10] = system: Hepatotoxicity; remark: listed apart in the source
[11] = system: Hepatotoxicity; remark: listed apart in the source
[12] = system: Hepatotoxicity; remark: listed apart in the source
[13] = system: Hepatotoxicity; remark: listed apart in the source
[14] = system: Hepatotoxicity; remark: listed apart in the source

| Structure (SMILES) | HepSE_jaundice [1] | HepSE_hepatitis [2] | HepSE_hepatic necrosis [3] | HepSE_liver fatty [4] | HepSE_hepatomegaly [5] | HepSE_liver disease [6] | HepSE_cirrhosis [7] | HepSE_cholelithiasis [8] | HepSE_liver function tests abnormal [9] | HepSE_bilirubinemia [10] | HepSE_cholecystitis [11] | HepSE_Combined Scores [12] | HepSE_hepatic failure [13] | HepSE_elevated liver function tests [14] | other results |
| --- | --- | --- | --- | --- | --- | --- | --- | --- | --- | --- | --- | --- | --- | --- | --- |
| CC1(C)S[C@@H]2[C@H](NC(=O)C(C(=O)O)c3ccccc3)C(=O)N2[C@H]1C(=O)O (stereo partly drawn) [CARBENICILLIN] | 0 | 0 | 0 | 0 | 0 | 0 | 0 | 0 | 0 | 0 | 0 | 0 | 0 | 0 |  |
| Cc1noc(NS(=O)(=O)c2ccc(N)cc2)c1C [SULFISOXAZOLE] | 1 | 1 | 0 | 0 | 0 | 0 | 0 | 0 | 0 | 0 | 0 | 2 | 0 | 0 |  |
| CC1=C(C/C=C(\C)CCC[C@H](C)CCC[C@H](C)CCCC(C)C)C(=O)c2ccccc2C1=O [PHYTONADIONE] | 0 | 0 | 0 | 0 | 0 | 0 | 0 | 0 | 0 | 1 | 0 | 1 | 0 | 0 |  |
| CC1=C(CC(=O)O)c2cc(F)ccc2/C1=C\c1ccc([S+](C)[O-])cc1 (stereo not drawn) | 1 | 1 | 0 | 0 | 0 | 0 | 0 | 0 | 0 | 0 | 1 | 4 | 1 | 0 |  |
| CCN(CC)CCNC(=O)c1ccc(N)cc1 [PROCAINAMIDE] | 0 | 0 | 0 | 0 | 1 | 0 | 0 | 0 | 0 | 0 | 0 | 2 | 1 | 0 |  |
| NCC[C@H](O)C(=O)N[C@@H]1C[C@H](N)[C@@H](O[C@H]2O[C@H](CN)[C@@H](O)[C@H](O)[C@H]2O)[C@H](O)[C@H]1O[C@H]1O[C@H](CO)[C@@H](O)[C@H](N)[C@H]1O [AMIKACIN] | 0 | 0 | 0 | 0 | 0 | 0 | 0 | 0 | 0 | 0 | 0 | 0 | 0 | 0 |  |
| C[C@@H]1[C@H](O)[C@@H](C)/C=C/C=C/C=C/C=C/C=C/C=C/C=C/[C@H](O[C@@H]2O[C@H](C)[C@@H](O)[C@H](N)[C@@H]2O)C[C@@H]2O[C@](O)(C[C@@H](O)C[C@@H](O)[C@H](O)CC[C@@H](O)C[C@@H](O)CC(=O)O[C@H]1C)C[C@H](O)[C@H]2C(=O)O [AMPHOTERICIN B] | 1 | 1 | 0 | 0 | 1 | 1 | 0 | 0 | 1 | 1 | 0 | 7 | 1 | 0 |  |
| CC(C)(C)NCC(O)c1ccc(O)c(CO)c1 (stereo not drawn) [ALBUTEROL] |  |  |  |  |  |  |  |  |  |  |  |  |  |  | HepSE_jaundice ([1]; Liver): 0; HepSE_hepatitis ([2]; Liver): 0; HepSE_hepatic necrosis ([3]; Liver): 0; HepSE_liver fatty ([4]; Liver): 0; HepSE_hepatomegaly ([5]; Liver): 0; HepSE_liver disease ([6]; Liver): 0; HepSE_cirrhosis ([7]; Liver): 0; HepSE_cholelithiasis ([8]; Liver): 0; HepSE_liver function tests abnormal ([9]; Liver): 0; HepSE_bilirubinemia ([10]; Liver): 0; HepSE_cholecystitis ([11]; Liver): 0; HepSE_Combined Scores ([12]; Liver): 0; HepSE_hepatic failure ([13]; Liver): 0; HepSE_elevated liver function tests ([14]; Liver): 0 |
| CC[C@@H]1C(=O)OC[C@@H]1Cc1cncn1C [PILOCARPINE] | 0 | 1 | 0 | 0 | 0 | 0 | 0 | 1 | 1 | 1 | 0 | 4 | 0 | 0 |  |
| CC1(C)O[C@@H]2C[C@H]3[C@@H]4C[C@H](F)C5=CC(=O)C=C[C@]5(C)[C@H]4[C@@H](O)C[C@]3(C)[C@]2(C(=O)CO)O1 [FLUNISOLIDE] | 0 | 0 | 0 | 0 | 0 | 0 | 0 | 0 | 0 | 0 | 0 | 0 | 0 | 0 |  |
| O=C1c2cccc3c2[C@H](CCC3)CN1[C@@H]1CN2CCC1CC2 [PALONOSETRON] | 0 | 0 | 0 | 0 | 0 | 0 | 0 | 0 | 0 | 0 | 0 | 0 | 0 | 0 |  |
| C[C@]12CC[C@H]3[C@@H](CCC4=CC(=O)CC[C@@H]43)[C@@H]1CC[C@@H]2O [NANDROLONE] | 0 | 0 | 0 | 0 | 0 | 0 | 0 | 0 | 0 | 0 | 0 | 0 | 0 | 0 |  |
